Measurements: the NIST ThermoML archive (doi:10.1016/j.tca.2015.01.022)
Numbers after ± are expanded uncertainties.

Tests used:
[1] = for molar entropy: 101.33 kPa, Small (less than 1 g) adiabatic calorimetry
[2] = Molar enthalpy of transition or fusion; conditions: Crystal; Adiabatic calorimetry

CCCCCCCC[n+]1ccn(C)c1.F[B-](F)(F)F [1-methyl-3-octylimidazolium tetrafluoroborate]
[1]
Conditions	Glass transition temperature [°C]	Triple point temperature [K]	molar entropy [J/K/mol]
0 K, Glass	–	–	13.9 ± 4.4
5 K, Crystal	–	–	0.507 ± 0.037
5 K, Glass	–	–	14.5 ± 4.4
10 K, Crystal	–	–	3.61 ± 0.12
10 K, Glass	–	–	18 ± 4.4
15 K, Crystal	–	–	9.69 ± 0.27
15 K, Glass	–	–	24.5 ± 4.2
20 K, Crystal	–	–	17.96 ± 0.38
20 K, Glass	–	–	33.1 ± 4.2
25 K, Crystal	–	–	27.66 ± 0.47
25 K, Glass	–	–	43.1 ± 4.2
30 K, Crystal	–	–	38.29 ± 0.51
30 K, Glass	–	–	54.1 ± 4.1
35 K, Crystal	–	–	49.44 ± 0.61
35 K, Glass	–	–	65.5 ± 4.1
40 K, Crystal	–	–	60.82 ± 0.69
40 K, Glass	–	–	77.1 ± 4.1
45 K, Crystal	–	–	72.28 ± 0.79
45 K, Glass	–	–	88.7 ± 4.1
50 K, Crystal	–	–	83.73 ± 0.88
50 K, Glass	–	–	100.3 ± 4
60 K, Crystal	–	–	106.3 ± 1
60 K, Glass	–	–	123.1 ± 4
70 K, Crystal	–	–	128.1 ± 1.2
70 K, Glass	–	–	145.2 ± 3.9
80 K, Crystal	–	–	149.2 ± 1.4
80 K, Glass	–	–	166.7 ± 3.9
90 K, Crystal	–	–	169.5 ± 1.5
90 K, Glass	–	–	187.6 ± 3.7
100 K, Crystal	–	–	189.1 ± 1.7
100 K, Glass	–	–	207.9 ± 3.8
110 K, Crystal	–	–	208 ± 1.9
110 K, Glass	–	–	227.7 ± 3.8
120 K, Crystal	–	–	226.3 ± 1.9
120 K, Glass	–	–	247 ± 3.7
130 K, Crystal	–	–	244.2 ± 2.1
130 K, Glass	–	–	265.9 ± 3.7
140 K, Crystal	–	–	261.5 ± 2.2
140 K, Glass	–	–	284.4 ± 3.7
150 K, Crystal	–	–	278.4 ± 2.3
150 K, Glass	–	–	302.8 ± 3.6
160 K, Crystal	–	–	295 ± 2.4
160 K, Glass	–	–	320.9 ± 3.7
170 K, Crystal	–	–	311.3 ± 2.6
170 K, Glass	–	–	338.9 ± 3.7
180 K, Crystal	–	–	327.5 ± 2.6
180 K, Glass	–	–	356.9 ± 3.7
190 K, Crystal	–	–	343.6 ± 2.8
190 K, Glass	–	–	375.5 ± 3.8
200 K, Crystal	–	–	359.6 ± 3
200 K, Liquid	–	–	398.7 ± 3.7
210 K, Crystal	–	–	375.6 ± 3
210 K, Liquid	–	–	421.4 ± 3.7
220 K, Crystal	–	–	391.5 ± 3.2
220 K, Liquid	–	–	442.9 ± 3.8
230 K, Crystal	–	–	407.4 ± 3.2
230 K, Liquid	–	–	463.6 ± 3.8
240 K, Crystal	–	–	423.2 ± 3.4
240 K, Liquid	–	–	483.5 ± 3.9
245.81 K, Crystal	–	–	432.4 ± 3.4
245.81 K, Liquid	–	–	494.7 ± 3.9
250 K, Liquid	–	–	502.7 ± 3.9
260 K, Liquid	–	–	521.3 ± 4.1
270 K, Liquid	–	–	539.4 ± 4.3
280 K, Liquid	–	–	557 ± 4.3
290 K, Liquid	–	–	574.3 ± 4.5
298.15 K, Liquid	–	–	588 ± 4.6
300 K, Liquid	–	–	591.1 ± 4.6
310 K, Liquid	–	–	607.5 ± 4.8
320 K, Liquid	–	–	623.7 ± 4.8
330 K, Liquid	–	–	639.5 ± 5
340 K, Liquid	–	–	655 ± 5
350 K, Liquid	–	–	670.3 ± 5.2
360 K, Liquid	–	–	685.3 ± 5.4
370 K, Liquid	–	–	700.1 ± 5.4
Crystal, Adiabatic calorimetry	–	245.81 ± 0.04	–
Glass, Adiabatic calorimetry	-83 ± 1	–	–

Conditions	Molar enthalpy of transition or fusion [kcal/mol]
[2]	3.659 ± 0.012

CCOS(=O)(=O)[O-].CCn1cc[n+](C)c1 [1-ethyl-3-methylimidazolium ethyl sulfate]
Conditions	Glass transition temperature [°C]
[1], Glass, Adiabatic calorimetry	-88 ± 1

CCCCn1cc[n+](C)c1.F[B-](F)(F)F [1-butyl-3-methylimidazolium tetrafluoroborate]
Conditions	Glass transition temperature [°C]
[1], Glass, Adiabatic calorimetry	-92 ± 1
